Data taken from ChEMBL document CHEMBL1121705, “Synthesis and angiotensin-converting enzyme inhibitory activity of 3-(Mercaptomethyl)-2-oxo-1-pyrrolidineacetic acids and 3-(Mercaptomethyl)-2-oxo-1-piperidineacetic acids” (J Med Chem, 1981).

Target: Angiotensin-converting enzyme (Homo sapiens, UniProt P12821)
Experiment: Concentration required for 50% inhibition of Angiotensin I converting enzyme; call rule not given here
Format: protein assay, Cavia porcellus

Sequence of Angiotensin-converting enzyme (P12821 whole entry): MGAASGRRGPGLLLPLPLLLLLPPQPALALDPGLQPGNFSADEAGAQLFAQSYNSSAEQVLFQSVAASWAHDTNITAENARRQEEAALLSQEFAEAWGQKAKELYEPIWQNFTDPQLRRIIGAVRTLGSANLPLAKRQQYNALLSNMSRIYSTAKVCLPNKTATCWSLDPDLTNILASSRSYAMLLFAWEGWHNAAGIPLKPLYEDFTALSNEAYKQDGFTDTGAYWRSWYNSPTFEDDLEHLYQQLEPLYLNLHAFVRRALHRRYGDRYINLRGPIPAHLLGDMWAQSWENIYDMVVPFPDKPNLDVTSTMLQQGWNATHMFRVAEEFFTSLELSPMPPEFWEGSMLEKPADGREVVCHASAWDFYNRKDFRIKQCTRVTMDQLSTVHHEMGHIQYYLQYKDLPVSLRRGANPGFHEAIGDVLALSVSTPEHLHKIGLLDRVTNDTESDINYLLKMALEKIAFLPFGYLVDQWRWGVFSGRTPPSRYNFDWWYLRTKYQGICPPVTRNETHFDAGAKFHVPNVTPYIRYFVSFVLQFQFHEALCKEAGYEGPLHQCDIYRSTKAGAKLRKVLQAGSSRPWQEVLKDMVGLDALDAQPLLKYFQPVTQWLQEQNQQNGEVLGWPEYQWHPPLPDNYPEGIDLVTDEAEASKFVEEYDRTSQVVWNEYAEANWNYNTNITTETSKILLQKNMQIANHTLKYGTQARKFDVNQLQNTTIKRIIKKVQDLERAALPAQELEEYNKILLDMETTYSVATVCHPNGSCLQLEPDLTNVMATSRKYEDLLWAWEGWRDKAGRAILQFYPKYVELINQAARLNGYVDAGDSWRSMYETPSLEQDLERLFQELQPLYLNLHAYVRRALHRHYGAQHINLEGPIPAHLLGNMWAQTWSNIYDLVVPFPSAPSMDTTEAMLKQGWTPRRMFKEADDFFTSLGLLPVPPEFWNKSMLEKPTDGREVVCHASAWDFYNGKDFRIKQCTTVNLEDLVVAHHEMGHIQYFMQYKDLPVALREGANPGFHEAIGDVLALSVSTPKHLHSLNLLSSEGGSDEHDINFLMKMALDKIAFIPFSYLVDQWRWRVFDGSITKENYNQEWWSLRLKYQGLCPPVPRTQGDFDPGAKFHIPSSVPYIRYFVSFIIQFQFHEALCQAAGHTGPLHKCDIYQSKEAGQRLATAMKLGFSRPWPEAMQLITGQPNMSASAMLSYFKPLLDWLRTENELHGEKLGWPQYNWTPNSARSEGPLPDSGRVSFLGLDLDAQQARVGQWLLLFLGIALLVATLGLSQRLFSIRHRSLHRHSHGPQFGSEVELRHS

IC50: Not Active
Compound: CC(=O)SCC1CCCN(CC(N)=O)C1=O (stereo unspecified)
